PubChem BioAssay AID298 (DTP/NCI, 2004)
“And” between values parts separate entries of the source, which are not always exact repeats. Equal entries are not always repeated. Records with an inconclusive call do not appear.

Tested on: MX-1 breast xenograft, intrarenal, nude mice, tumor weight
Assay: NCI In Vivo Anticancer Drug Screen. Data for tumor model Human Mammary Carcinoma MX-1 Xenograft (intrarenal inoculation) in NU/NU BALB/C (nude) mice
Settings: endpoint: mean tumor weight change, higher = larger tumour
How it was run: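 T/C readout: treated-group measurement over vehicle-control measurement, using tumor size or survival in tumor-bearing mice.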

[1] = dose: 150.0 mg/kg/injection, schedule: Q04DX003 (ip), vehicle: Klucel (hydroxypropylcellulose) (HPC)
[2] = dose: 300.0 mg/kg/injection, schedule: Q04DX003 (ip), vehicle: Klucel (hydroxypropylcellulose) (HPC)
[3] = dose: 600.0 mg/kg/injection, schedule: Q04DX003 (ip), vehicle: Klucel (hydroxypropylcellulose) (HPC)
[4] = dose: 300.0 mg/kg/injection, schedule: Q04DX003 (ip), vehicle: other

With COC(=O)[C@@]12OC[C@]34[C@H]([C@@H](O)[C@@H]1O)[C@@]1(C)CC(=O)C(O)=C(C)[C@@H]1C[C@H]3OC(=O)[C@H](OC(=O)/C=C(\C)C(C)C)[C@@H]24 the T/C (dose: 1.0 mg/kg/injection, schedule: Q01DX010 (sc), vehicle: saline + alcohol) was 51 % of control.
With Nc1ncnc2c1c1c(=O)[nH]c(=O)[nH]c1n2C1OC(CO)C(O)C1O (centres undefined) the T/C (dose: 112.5 mg/kg/injection, schedule: Q04DX003 (sc), vehicle: distilled water + Tween-80) was 62 % of control, the T/C (dose: 225.0 mg/kg/injection, schedule: Q04DX003 (sc), vehicle: distilled water + Tween-80) was 63 % of control and the T/C (dose: 450.0 mg/kg/injection, schedule: Q04DX003 (sc), vehicle: distilled water + Tween-80) was 31 % of control. For the same compound, the T/C (dose: 900.0 mg/kg/injection, schedule: Q04DX003 (sc), vehicle: distilled water + Tween-80) was 25 % of control.
In the case of NC(=O)c1[nH]cnc1O, the T/C (dose: 50.0 mg/kg/injection, schedule: Q04DX003 (ip), vehicle: saline with Tween-80) is reported as 96 % of control, the T/C (dose: 100.0 mg/kg/injection, schedule: Q04DX003 (ip), vehicle: saline with Tween-80) is reported as 112 % of control and 119 % of control and the T/C (dose: 400.0 mg/kg/injection, schedule: Q04DX003 (ip), vehicle: saline with Tween-80) is reported as 81 % of control. For the same compound, the T/C (dose: 800.0 mg/kg/injection, schedule: Q04DX003 (ip), vehicle: saline with Tween-80) was 69 % of control.
CCC12C[N+]3([O-])CCc4c([nH]c5ccccc45)C(C(=O)OC)(c4cc5c(cc4OC)N(C)C4C(O)(C(=O)OC)C(OC(C)=O)C6(CC)C=CCN7CCC54C76)CC(C3)C1O2 (centres undefined) was tested, and the T/C (dose: 80.0 mg/kg/injection, schedule: Q04DX003 (sc), vehicle: water) was 109 % of control, the T/C (dose: 160.0 mg/kg/injection, schedule: Q04DX003 (sc), vehicle: water) was 117 % of control and the T/C (dose: 320.0 mg/kg/injection, schedule: Q04DX003 (sc), vehicle: water) was 123 % of control. For the same compound, the T/C (dose: 640.0 mg/kg/injection, schedule: Q04DX003 (sc), vehicle: water) was 88 % of control.
In the case of COc1ccc2c(c1)CCn1c(C)c(COC(=O)NC(C)C)c(COC(=O)NC(C)C)c1-2, the T/C (dose: 75.0 mg/kg/injection, schedule: Q04DX003 (ip), vehicle: distilled water + Tween-80) is reported as -29 % of control.
With O=C1C2C3C=CC(C2C(=O)N1CO)C1C2C(=O)N(CO)C(=O)C2C31 (centres undefined) the T/C (dose: 37.5 mg/kg/injection, schedule: Q04DX003 (ip), vehicle: water) was 110 % of control and the T/C (dose: 75.0 mg/kg/injection, schedule: Q04DX003 (ip), vehicle: water) was 71 % of control.
In the case of CCOc1cc2c(cc1C(C)c1ccc(OC)cc1)OCO2 (centres undefined), the T/C (dose: 300.0 mg/kg/injection, schedule: Q04DX003 (sc), vehicle: distilled water + alcohol) is reported as 36 % of control, the T/C (dose: 600.0 mg/kg/injection, schedule: Q04DX003 (sc), vehicle: distilled water + alcohol) is reported as 90 % of control and the T/C (dose: 1200.0 mg/kg/injection, schedule: Q04DX003 (sc), vehicle: distilled water + alcohol) is reported as 76 % of control. For the same compound, the T/C (dose: 2400.0 mg/kg/injection, schedule: Q04DX003 (sc), vehicle: distilled water + alcohol) was 111 % of control.
CC[C@@]1(O)C(=O)OCc2c1cc1n(c2=O)Cc2cc3ccccc3nc2-1 was tested, and the T/C (dose: 10.0 mg/kg/injection, schedule: Q04DX003 (sc), vehicle: saline with Tween-80) was -84 % of control and -100 % of control, the T/C (dose: 20.0 mg/kg/injection, schedule: Q04DX003 (sc), vehicle: saline with Tween-80) was -100 % of control and -95 % of control and the T/C (dose: 40.0 mg/kg/injection, schedule: Q04DX003 (sc), vehicle: saline with Tween-80) was -100 % of control.
In the case of COC1=C(OC)C(=O)C(SC/C=C(\C)CCCC(C)CCCC(C)CCCC(C)C)=CC1=O (centres undefined), the T/C (dose: 300.0 mg/kg/injection, schedule: Q04DX003 (ip), vehicle: saline with Tween-80) is reported as 220 % of control, the T/C (dose: 600.0 mg/kg/injection, schedule: Q04DX003 (ip), vehicle: saline with Tween-80) is reported as 61 % of control and the T/C (dose: 1200.0 mg/kg/injection, schedule: Q04DX003 (ip), vehicle: saline with Tween-80) is reported as 75 % of control.
For O=C(Nc1cccnc1)c1ccc([N+](=O)[O-])s1, the T/C (dose: 50.0 mg/kg/injection, schedule: Q04DX003 (ip), vehicle: saline) was 92 % of control, the T/C (dose: 100.0 mg/kg/injection, schedule: Q04DX003 (ip), vehicle: saline) was 81 % of control and 90 % of control and the T/C (dose: 200.0 mg/kg/injection, schedule: Q04DX003 (ip), vehicle: saline) was 92 % of control and 103 % of control. For the same compound, the T/C (dose: 400.0 mg/kg/injection, schedule: Q04DX003 (ip), vehicle: saline) was 80 % of control and the T/C (dose: 800.0 mg/kg/injection, schedule: Q04DX003 (ip), vehicle: saline) was 105 % of control.
CN(Cc1cnc2nc(N)nc(N)c2n1)c1ccc(C(=O)NC(CCC(=O)OCc2cc3c(cc2Cl)OCO3)C(=O)OCc2cc3c(cc2Cl)OCO3)cc1 (centres undefined) was tested, and the T/C (dose: 7.5 mg/kg/injection, schedule: Q04DX003 (ip), vehicle: saline with Tween-80) was 75 % of control.
For COc1cccc2c1C(=O)c1c(O)c3c(c(O)c1C2=O)CC(O)(C(=O)CO)CC3OC1CC(N)C(O)C(C)O1 (centres undefined), the T/C (dose: 25.0 mg/kg/injection, schedule: Q01DX010 (sc), vehicle: saline) was 41 % of control and the T/C (dose: 50.0 mg/kg/injection, schedule: Q01DX010 (sc), vehicle: saline) was 22 % of control.
In the case of CCOC(=O)/C=C/C(=O)N1CCN(C(=O)/C=C/C(=O)OCC)C(C)C1 (centres undefined), the T/C [1] is reported as 103 % of control, the T/C [2] is reported as 83 % of control and the T/C [3] is reported as 77 % of control.
For C[n+]1c(-c2ccc(NC(=O)c3ccc(C(=O)Nc4ccc(-c5cn6ccccc6[n+]5C)cc4)cc3)cc2)cn2ccccc21, the T/C (dose: 12.5 mg/kg/injection, schedule: Q04DX003 (ip), vehicle: saline with Tween-80) was 41 % of control.
In the case of CCCC1(c2ccccc2)C(=O)NCNC1=O, the T/C [1] is reported as 92 % of control, the T/C [2] is reported as 95 % of control and the T/C [3] is reported as 88 % of control. The T/C (dose: 1200.0 mg/kg/injection, schedule: Q04DX003 (ip), vehicle: Klucel (hydroxypropylcellulose) (HPC)) was 55 % of control.
For CC1(C)CC(=O)C(CSC(=O)c2ccccc2)C(=O)C1, the T/C (dose: 75.0 mg/kg/injection, schedule: Q04DX003 (sc), vehicle: Klucel (hydroxypropylcellulose) (HPC)) was 101 % of control, the T/C (dose: 150.0 mg/kg/injection, schedule: Q04DX003 (sc), vehicle: Klucel (hydroxypropylcellulose) (HPC)) was 101 % of control and the T/C (dose: 300.0 mg/kg/injection, schedule: Q04DX003 (sc), vehicle: Klucel (hydroxypropylcellulose) (HPC)) was 101 % of control.
For CC(/C=C/C1OC(=O)C=CC1C)=C\C(C)C/C=C/C(C)=C/C(C)C(=O)C(C)C(O)C(C)C/C(C)=C/C(=O)O (centres undefined), the T/C (dose: 50.0 micrograms/kg/injection, schedule: Q04DX003 (ip), vehicle: alcohol) was 104 % of control, the T/C (dose: 100.0 micrograms/kg/injection, schedule: Q04DX003 (ip), vehicle: alcohol) was 87 % of control and the T/C (dose: 200.0 micrograms/kg/injection, schedule: Q04DX003 (ip), vehicle: alcohol) was 81 % of control. The T/C (dose: 400.0 micrograms/kg/injection, schedule: Q04DX003 (ip), vehicle: alcohol) was 111 % of control.
Cc1noc2nc(-c3ccccc3)cc(N3CCN(C)CC3)c12 was tested, and the T/C (dose: 75.0 mg/kg/injection, schedule: Q04DX003 (ip), vehicle: other) was 83 % of control, the T/C (dose: 150.0 mg/kg/injection, schedule: Q04DX003 (ip), vehicle: other) was 120 % of control and the T/C [4] was 92 % of control.
O=C1C2CC(Cl)C(SSC3CC4C(=O)N(SC(Cl)(Cl)C(Cl)Cl)C(=O)C4CC3Cl)CC2C(=O)N1SC(Cl)(Cl)C(Cl)Cl (centres undefined) was tested, and the T/C (dose: 75.0 mg/kg/injection, schedule: Q04DX003 (ip), vehicle: saline with Tween-80) was 88 % of control and the T/C (dose: 150.0 mg/kg/injection, schedule: Q04DX003 (ip), vehicle: saline with Tween-80) was 45 % of control.
In the case of CC1(C)COCN1COCCOCN1COCC1(C)C, the T/C (dose: 200.0 mg/kg/injection, schedule: Q04DX003 (sc), vehicle: saline) is reported as 77 % of control and the T/C (dose: 400.0 mg/kg/injection, schedule: Q04DX003 (sc), vehicle: saline) is reported as 83 % of control.
In the case of CNCCN=c1ccc2c3c1c(O)c1c(O)ccc(=O)c1c3[nH]n2CCNCCO, the T/C (dose: 1.56 mg/kg/injection, schedule: Q04DX003 (ip), vehicle: water) is reported as 7 % of control and 17 % of control and 26 % of control and the T/C (dose: 3.12 mg/kg/injection, schedule: Q04DX003 (ip), vehicle: water) is reported as 1 % of control and 5 % of control and 8 % of control.
In the case of CSc1ncnc2c1ncn2C1OC(CO)C(O)C1O (centres undefined), the T/C (dose: 75.0 mg/kg/injection, schedule: Q04DX003 (sc), vehicle: saline + alcohol) is reported as 1 % of control and the T/C (dose: 150.0 mg/kg/injection, schedule: Q04DX003 (sc), vehicle: saline + alcohol) is reported as -97 % of control.
With COC(=O)C1(F)C(=O)NC(=O)NC1OC (centres undefined) the T/C [1] was 85 % of control, the T/C [2] was 93 % of control and the T/C [3] was 43 % of control.
With O=C1C=CN(C2OC(CO)C(O)C2O)C(=O)C1 (centres undefined) the T/C (dose: 90.0 mg/kg/injection, schedule: Q01DX009 (ip), vehicle: saline) was 65 % of control, the T/C (dose: 133.4 mg/kg/injection, schedule: Q01DX009 (ip), vehicle: saline) was 98 % of control and the T/C (dose: 200.0 mg/kg/injection, schedule: Q01DX009 (ip), vehicle: saline) was 89 % of control. The T/C (dose: 300.0 mg/kg/injection, schedule: Q01DX009 (ip), vehicle: saline) was 36 % of control.
For Nc1n[nH]c2ccccc12, the T/C [4] was 93 % of control and the T/C (dose: 600.0 mg/kg/injection, schedule: Q04DX003 (ip), vehicle: other) was 108 % of control.
